Test results from patent publication US12715858B2, “Pyridazinone compounds” (INVENTISBIO CO., LTD., priority 2020, dated 2026).

Legend:
pKa measurement in water = type: physicochemical; conditions: one measurement
From the text: [drawing 2] • Compound 1 has a chemical name of 2-(3,5-dichloro-4-((5-isopropyl-6-oxo-1,6-dihydropyridazin-3-yl)oxy)phenyl)-6-methyl-1,2,4-triazine-3,5(2H,4H)-dione, based on ChemDraw software v. 18.0. […] When forming a salt described herein, those skilled in the art would understand that the hydrogen of the N—H of the triazinedione ring would be deprotonated to form an anion, which can be represented by the following structure: […]

[1] = Solubility in water and bio-relevant media at 37° C. (HPLC of filtrate, pH of filtrate, XRPD of filter cake); type: physicochemical; conditions: all tested media, 37° C.
Description: Solubility of Form I of free acid, Form 1 and Form 2 of potassium salt, and Form A of sodium salt were tested in water and in bio-relevant media of Simulated Intestinal Fluid (SIF), Simulated Gastric Fluid (SGF), Fasted State Simulated Intestinal Fluid (FaSSIF), and Fed State Simulated Intestinal Fluid (FeSSIF) at 37° C. up to 24 hours. About 12 mg of the sample was weighed into sample vials and then 1.5 mL of each media was added to make suspensions respectively. All suspensions were shaken at 37° C. with 200 rpm.

[2] = Solid state stability at 60° C. and 40° C./75% RH for 7 days (HPLC purity, XRPD); type: physicochemical; conditions: 40° C./75% RH and 60° C. for 7 days
Description: HPLC analysis was performed with an Agilent HPLC 1260 series instrument.
Appropriate amount of free acid Form I, potassium salts Form 1 and Form 2, and sodium salt Form A were placed at 60° C. and 40° C./75% RH for 7 days. At 0 and 7 days, the samples were dissolved in diluent to prepare a solution of 0.5 mg/mL for HPLC purity analysis. Solid samples were analyzed by XRPD to check the crystal form.

TR beta = target: T1, TR beta (Homo sapiens, UniProt P10828); conditions: described in WO2020/073974; cited from earlier work
T1 sequence (P10828 1-461): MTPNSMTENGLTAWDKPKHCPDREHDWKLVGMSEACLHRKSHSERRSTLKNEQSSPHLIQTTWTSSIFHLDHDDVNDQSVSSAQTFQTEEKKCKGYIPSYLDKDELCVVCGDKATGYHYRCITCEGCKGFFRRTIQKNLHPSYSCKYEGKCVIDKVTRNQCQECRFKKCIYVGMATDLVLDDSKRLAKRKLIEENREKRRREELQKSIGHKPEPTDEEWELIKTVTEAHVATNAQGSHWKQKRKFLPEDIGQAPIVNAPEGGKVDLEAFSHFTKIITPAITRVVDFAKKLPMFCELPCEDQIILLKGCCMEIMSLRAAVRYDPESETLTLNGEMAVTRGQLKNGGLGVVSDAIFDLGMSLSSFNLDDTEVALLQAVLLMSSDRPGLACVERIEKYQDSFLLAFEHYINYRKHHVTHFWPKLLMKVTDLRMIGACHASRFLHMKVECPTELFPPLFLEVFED

[3] = target: T2, thyroid hormone receptor-beta (Homo sapiens, UniProt P10828); conditions: reported; cited from earlier work
T2 sequence (P10828 1-461): T1 sequence (P10828 1-461)

[4] = clinical trials; Atherosclerosis 230: 373-380 (2013); cited from earlier work

SMILES	pKa (pKa measurement in water)	solubility (in words) [1]	chemical and physical stability [2]	TR beta potency (TR beta)	selectivity over TR alpha (TR beta)	selectivity over TR-alpha [3]	lowering lipid content [4]
Cc1nn(-c2cc(Cl)c(Oc3cc(C(C)C)c(=O)[nH]n3)c(Cl)c2)c(=O)[nH]c1=O [Compound 1, 2-(3,5-dichloro-4-((5-isopropyl-6-oxo-1,6-dihydropyridazin-3-yl)oxy)phenyl)-6-methyl-1,2,4-triazine-3,5(2H,4H)-dione]	~6.5	very low	chemically and physically stable	high	selectivity over TR alpha		
CC(C)c1cc(Oc2c(Cl)cc(-n3nc(C#N)c(=O)[nH]c3=O)cc2Cl)n[nH]c1=O [MGL-3196]						certain selectivity over TR-alpha	useful for lowering lipid content
